Columns and labels:
Assay type in all cases: cell-based, human
[1] = test system: T cells in PBMC of EBV seropositive donors; assay: IFN-γ ELISPOT assay, ex vivo stimulation of PBMC with LMP1 peptides
Method: The ELISPOT assay was used to assess whether stimulation of PBMC from a large panel of seropositive donors with LMP1 peptides could induce IFN-γ expression in T cells (Bharadwaj 2001). Briefly, ninety six-well mixed cellulose ester membrane plates (Millipore, Bedford, USA) were precoated with 100 μL/well of […] of anti-IFN-γ mAb, 1-D1K (Mabtech, Stockhohn, Sweden) overnight at 4° C. The plate was washed six times with phosphate-buffered saline (PBS), and unreactive sites blocked using 5% foetal bovine serum. PBMCs from healthy EBV carriers of known HLA types were separated from whole blood by Ficoll-Hypaque (Sigma) density gradient centrifugation. PBMCs were added in triplicate wells at 2.5×10^5 cells in a volume of 100 μL/well, and then peptides were added onto the PBMCs at a final 5 μg/mL concentration. PBMCs were also tested at different concentrations in triplicate wells at 2.5×10^5, 1.5×10^5 and 1×10^5 cells/well. PBMCs with various peptide concentrations, 10 μg/mL, 5 μg/mL and 1 μg/mL, were assayed. For negative controls, PBMCs were incubated in growth medium alone without adding peptides. The plate was incubated at 37° C. with 5% CO2 overnight (about 16-20 hr), then washed thrice with PBST (0.05% of Tween-20 in PBS) and three times with PBS before 100 μL/well of 1 μg/mL anti-IFN-γ mAb, 7-B6-1 (Mabtech, Stockholn, Sweden) was added and incubated at room temperature for 3-4 hr. After incubation, the plate was washed again thrice each with PBST and PBS, and 100 μL/well of 1 μg/mL streptavidin-alkaline phosphatase conjugate (Sigma) was added. The plate was incubated at room temperature for 2 hr. Wells were washed again three times each with PBST and PBS, and individual IFN-γ-producing cells were detected as dark spots after about 30-min to an hour-colour reaction with 5-bromo-4-chloro-3-indolylphosphate and nitroblue tetrazolium using an alkaline phosphatase-conjugated substrate (BCIP/NBT; Sigma). Spots were counted automatically using an image analysis software (ImagePro) (Bharadwaj 2001), and were expressed as spot-forming cells (SFC) per 10^6 PBMCs. The number of IFN-γ-secreting T cells was calculated by subtracting the negative control value from the SFC count.
To comprehensively profile the memory T cell responses against the LMP1 in seropositive virus carriers we used the ELISPOT assay, which allowed rapid ex vivo profiling of LMP1-specific immune response without prolonged in vitro culture. PBMC isolated from a panel of seropositive healthy virus carriers (Table 2) were stimulated with the complete set of overlapping LMP1 peptides and the cells that produced IFN-γ were detected. […] One of the interesting features of these responses was that the majority of the T cell reactivity was directed towards the epitopes within the transmembrane and CTAR1 domains of LMP1, while no reactivity was observed towards the CTAR2 and N-terminus (FIG. 1B). In particular, almost 80% of the CTAR1 domain was targeted for T cell recognition. To identify the T cell subsets responding to these peptides, PBMCs from the seven donors who recognized 17-mer peptides were fractionated into CD4-depleted and CD8-depleted populations and then tested again in ELISPOT assays. […] The CD4-dependent reactivity of the peptide […] was consistent with the previous observations by Leen and colleagues who mapped an HLA DQ2-restricted epitope within this sequence.
In order to determine the frequency of recognition of the HLA class I-restricted LMP1 CTL epitopes, PBMC from a panel of healthy virus carriers of diverse ethnic origin were screened by ELISPOT assays. Four different HLA class I-restricted and one HLA class II-restricted T cell epitopes were included in this analysis. Strong responses were observed against the HLA-A2-restricted […], […] and […] epitopes in 35-45% of the donors tested. […]

[2] = test system: peptide-sensitised PHA blasts and LCLs; assay: 51Cr-release cytotoxicity assay with peptide-specific CTL lines and clones; details: for generation of CTL lines with minimised epitope: donors; for sensitizing autologous PHA blast to lysis by YLLEMLWRL-specific CTL clone: serial dilutions of peptide, compared with wild-type YLLEMLWRL, CTL clone SB7
Method: Polyclonal CTL lines and LMP1-specific CTL clones were established according to previously published methods (Moss 1988; Khanna 1998). Briefly, 2×10^6 PBMCs were stimulated with 1×10^6 autologous lymphocytes (responder to stimulator ratio of 2:1) pulsed with 10 μM peptide for 1 hr in 2 ml in a 24-well plate. After 3 days, culture medium with IL-2 (10 U/ml) was added and the cells were further expanded. These lymphocytes were restimulated on day 7 with γ-irradiated (8000 rad) autologous LCLs. After 10 days in culture medium, the cells were used as polyclonal effectors in a standard ^51Cr-release assay against peptide-sensitised autologous PHA blasts.
To generate peripheral blood CTL clones specific for the LMP1 derived peptides, PBMCs of healthy donors were reactivated (2×10^6) PBMCs with peptide-sensitised (10 ug of peptide/ml) autologous lymphocytes (1×10^6) in 2 ml wells of a 24-well plate in culture medium. After 3 days, the cells were seeded onto 0.35% agarose and maintained in T cell growth medium containing rIL2 (50 IU/ml). After another 3 days, growing clones were transferred to 96-well round-bottom tissue culture plates (Life Technologies) and cultured in T cell growth medium containing rIL2 (50-100 IU/ml).
Target cells were pre-sensitized with synthetic peptide epitopes and then incubated with ^51Cr for 90 min. Following incubation, these cells were washed in growth medium and used as targets in a standard 5 h ^51Cr-release assay (Moss, 1988)
To further characterize the minimal T cell epitopes defined by ELISPOT assays we generated polyclonal and clonal CTL lines specific for these epitopes. PBMCs from the healthy seropositive donors were stimulated with synthetic peptide epitopes and the CTL clones or polyclonal lines were established and tested in standard ^51Cr-release assays. The […] peptide-specific CTL clones were generated using initial stimulation with peptide-sensitized autologous PBMC followed by continuous restimulation with irradiated autologous LCL. These CTL clones were screened for […]-specific CTL activity by ^51Cr release assays against peptide-sensitised autologous and allogeneic PHA blast and LCLs. […] Titration of this minimal epitope on autologous PHA blasts further confirmed the fine specificity of this CTL clone (FIG. 5B).

[3] = test system: CD4+ and CD8+ T cell populations of PBMC; assay: IFN-γ ELISPOT on CD4- or CD8-depleted PBMC; details: peptide 10 μg/ml
Method: FIG. 2: Ex vivo detection of IFN-γ secretion by CD4^+ and CD8^+ T cell populations following stimulation with LMP1 peptides. CD4^+ cells or CD8^+ cells were depleted from fresh PBMCs using anti-human CD4 or CD8 immunomagnetic beads as described in the Material and Methods section. These cells were resuspended in growth medium and stimulated with […] (SEQ ID NO: 36; panel A) and […] (SEQ ID NO: 39; panel B) peptides (10 μg/ml) and then tested for IFN-γ secretion using ELISPOT assays.
CD4^+ cells or CD8^+ cells were depleted from fresh PBMCs using anti-human CD4 or CD8 immunomagnetic beads (Dynabeads M450-CD4 and M450-CD8), respectively (Dynal, Oslo, Norway) according to the manufacturer's instructions. Efficient depletion was confirmed by staining the depleted PBMCs using dual staining with FITC-conjugated anti-CD8 and PE-conjugated anti-CD4 antibody and flow cytometry on a Coulter EPICS XL cytometer. […]
To comprehensively profile the memory T cell responses against the LMP1 in seropositive virus carriers we used the ELISPOT assay, which allowed rapid ex vivo profiling of LMP1-specific immune response without prolonged in vitro culture. PBMC isolated from a panel of seropositive healthy virus carriers (Table 2) were stimulated with the complete set of overlapping LMP1 peptides and the cells that produced IFN-γ were detected. […]

[4] = subject nineteen (NPC), donor theta

Row | Sequence | CTL response (SFC/10^6 PBMC) ([1]; subject eleven) | CTL response (SFC/10^6 PBMC) ([1]; subject gamma) | CTL response (SFC/10^6 PBMC) [1, 4] | CTL response (SFC/10^6 PBMC) ([1]; subject beta) | CTL response (SFC/10^6 PBMC) ([1]; subject epsilon) | CTL response (SFC/10^6 PBMC) ([1]; subject fifteen) | CTL response (SFC/10^6 PBMC) ([1]; subject four) | CTL response (SFC/10^6 PBMC) ([1]; subject thirteen) | CTL response (SFC/10^6 PBMC) ([1]; subject three) | CTL response (SFC/10^6 PBMC) ([1]; subject twenty) | CTL response (SFC/10^6 PBMC) ([1]; subject twenty-one) | CTL response (SFC/10^6 PBMC) ([1]; subject zeta) | also measured
1 | IALYLQQNW | 504 SFC/10^6 PBMC | 0 SFC/10^6 PBMC | 0 SFC/10^6 PBMC |  |  |  |  |  |  |  |  |  | HLA B58-positive donors recognizing the epitope ([1]; responders/tested): 3/5; CTL response (SFC/10^6 PBMC) ([1]; subject delta): 0 SFC/10^6 PBMC; CTL response (SFC/10^6 PBMC) ([1]; subject eight): 1952 SFC/10^6 PBMC; CTL response (SFC/10^6 PBMC) ([1]; subject eta (NPC)): 0 SFC/10^6 PBMC; CTL response (SFC/10^6 PBMC) ([1]; subject five): 100 SFC/10^6 PBMC; CTL response (SFC/10^6 PBMC) ([1]; subject fourteen): 955 SFC/10^6 PBMC; CTL response (SFC/10^6 PBMC) ([1]; subject nine): 240 SFC/10^6 PBMC; CTL response (SFC/10^6 PBMC) ([1]; subject seventeen): 897 SFC/10^6 PBMC; CTL response (SFC/10^6 PBMC) ([1]; subject six): 455 SFC/10^6 PBMC; CTL response (SFC/10^6 PBMC) ([1]; subject ten): 80 SFC/10^6 PBMC; CTL response (SFC/10^6 PBMC) ([1]; subject two): 48 SFC/10^6 PBMC
2 | ESDSNSNEG [reference compound] |  |  |  |  |  |  |  |  |  |  |  |  | generation of CTL lines with minimised epitope [2]: did not generate CTL lines
3 | ALLVLYSFA | 128 SFC/10^6 PBMC | 0 SFC/10^6 PBMC | 0 SFC/10^6 PBMC | 0 SFC/10^6 PBMC | 0 SFC/10^6 PBMC | 80 SFC/10^6 PBMC | 0 SFC/10^6 PBMC | 0 SFC/10^6 PBMC | 192 SFC/10^6 PBMC | 88 SFC/10^6 PBMC | 592 SFC/10^6 PBMC | 0 SFC/10^6 PBMC | CTL response (SFC/10^6 PBMC) ([1]; subject eighteen): 1184 SFC/10^6 PBMC; CTL response (SFC/10^6 PBMC) ([1]; subject one): 96 SFC/10^6 PBMC; CTL response (SFC/10^6 PBMC) ([1]; subject six): 480 SFC/10^6 PBMC; CTL response (SFC/10^6 PBMC) ([1]; subject twenty-two): 10 SFC/10^6 PBMC
4 | YLLEMLWRL [reference compound] | 136 SFC/10^6 PBMC | 0 SFC/10^6 PBMC | 0 SFC/10^6 PBMC | 0 SFC/10^6 PBMC | 0 SFC/10^6 PBMC | 300 SFC/10^6 PBMC | 0 SFC/10^6 PBMC | 0 SFC/10^6 PBMC | 42 SFC/10^6 PBMC | 160 SFC/10^6 PBMC | 66 SFC/10^6 PBMC | 0 SFC/10^6 PBMC | CTL response (SFC/10^6 PBMC) ([1]; subject seven): 100 SFC/10^6 PBMC; CTL response (SFC/10^6 PBMC) ([1]; subject sixteen): 20 SFC/10^6 PBMC; CTL response (SFC/10^6 PBMC) ([1]; subject twelve): 0 SFC/10^6 PBMC
5 | DWTGGALLVLYSFALML [LMP1 17-mer peptide] |  |  |  |  |  |  |  |  |  |  |  |  | T cell subset responding to the peptide [3]: only CD8^+ T-cell dependent reactivity
6 | YLMEILWRL |  |  |  |  |  |  |  |  |  |  |  |  | sensitizing autologous PHA blast to lysis by YLLEMLWRL-specific CTL clone [2]: poorly recognized
7 | YLQQNWWTL [reference compound] | 196 SFC/10^6 PBMC | 0 SFC/10^6 PBMC | 0 SFC/10^6 PBMC | 0 SFC/10^6 PBMC | 0 SFC/10^6 PBMC | 100 SFC/10^6 PBMC | 0 SFC/10^6 PBMC | 0 SFC/10^6 PBMC | 28 SFC/10^6 PBMC | 244 SFC/10^6 PBMC | 38 SFC/10^6 PBMC | 0 SFC/10^6 PBMC | CTL response (SFC/10^6 PBMC) ([1]; subject seven): 110 SFC/10^6 PBMC; CTL response (SFC/10^6 PBMC) ([1]; subject sixteen): 26 SFC/10^6 PBMC; CTL response (SFC/10^6 PBMC) ([1]; subject twelve): 44 SFC/10^6 PBMC
8 | YFLEILWGL |  |  |  |  |  |  |  |  |  |  |  |  | sensitizing autologous PHA blast to lysis by YLLEMLWRL-specific CTL clone [2]: poorly recognized
9 | DSNSNEGRH |  |  |  |  |  |  |  |  |  |  |  |  | generation of CTL lines with minimised epitope [2]: did not generate CTL lines
10 | TDDSGHESDSNSNEGRH |  |  |  |  |  |  |  |  |  | 141 SFC/10^6 PBMC |  |  | T cell subset responding to the peptide [3]: predominantly mediated by CD4+ cells; healthy virus carriers tested recognizing the epitope [1]: all three; healthy donors showing a CD8+ T-cell response in Elispot assays ([1]; responders/healthy donors assessed): 3/21; magnitude of responses ([1]; responding healthy donors): 131-190 SFC/10^6 PBMC; CTL response (SFC/10^6 PBMC) ([1]; subject seventeen): 190 SFC/10^6 PBMC; CTL response (SFC/10^6 PBMC) ([1]; subject ten): 131 SFC/10^6 PBMC; recognition of peptide coated autologous PHA blasts by polyclonal CTL lines ([2]; CTL lines from two donors, data not shown): recognition

From patent US20070048329A1, “Epstein barr virus peptide epitopes, polyepitopes and delivery system therefor” (priority 2002, published 2007)
